Data as given in EP0973746B1, “SUBSTITUTED 3-CYANO QUINOLINES” (Wyeth Holdings Corporation, priority 1997, dated 1998).
≈ marks a conversion by molar mass, not a printed value.

What was measured:
[1] = tested on: A431; experiment: Inhibition of cell growth by incorporation of [3H]-thymidine, A431; format: cell-based, human; settings: Homo sapiens, A-431; [3H]-thymidine incorporation; A431; read-out: IC50 A431
[2] = tested on: NEU-3T3; experiment: Inhibition of cell growth by incorporation of [3H]-thymidine, Neu-3T3; format: cell-based, mouse; settings: Mus musculus, [3H]-thymidine incorporation
Experimental: (§1) Representative compounds of this invention were evaluated for their ability to inhibit the growth of the cell lines described below in vitro. The inhibition is quantitated by measuring the decrease in the incorporation of radio-labeled thymidine when the cells are grown in the presence of the inhibitor. […] Cells were routinely grown in a humidified incubator in 5% CO2 in air.
(§2) Cells were seeded at 10,000 cells/well in 96 well plates in complete media and allowed to grow to log phase. At this stage the complete media was replaced with media containing 0.5% FBS (for cells growing in 10% FBS) or media lacking epidermal growth factor (EGF) (for cells growing in serum free media). […] Media with test compound was then removed and complete media was added back. The cells were allowed to grow for 18 hours. This is followed by incubation in [^3H]thymidine (1mCi/ml in serum/EGF media) for 4 hours. Cells were lysed in 0.5 M NaOH for at least 30 min at 37°C and radioactivity analyzed.
(§3) The % inhibition of the compound evaluated was determined for at least three different concentrations and the IC50 value evaluated from the dose response curve. […] CPM(control) is in units of counts per minute and is a number expressing the amount of [^3H]thymidine incorporated onto the DNA when cells are grown in the absence of test compound as measured by liquid scintillation counting.

[3] = tested on: NHEK; experiment: Inhibition of cell growth by incorporation of [3H]-thymidine, NHEK; format: cell-based, human; settings: Homo sapiens, [3H]-thymidine incorporation, read-out: IC50 NHEK
[4] = tested on: SKBR3; experiment: Inhibition of cell growth by incorporation of [3H]-thymidine, SKBR3; format: cell-based, human; settings: Homo sapiens, SK-BR-3, [3H]-thymidine incorporation
Experimental: as §1, §2, §3

[5] = tested on: HTB161; experiment: Inhibition of cancer cell growth as measured by cell number, HTB161; format: cell-based; settings: Homo sapiens; cell number, Sulforhodamine B, 48 hours exposure; Table 4; read-out: IC50 HTB161
[6] = tested on: A27805; experiment: Inhibition of cancer cell growth as measured by cell number, A27805; format: cell-based; settings: Homo sapiens; cell number, Sulforhodamine B, 48 hours exposure; Table 4; read-out: IC50 A27805
[7] = tested on: A2780DDP; experiment: Inhibition of cancer cell growth as measured by cell number, A2780DDP; format: cell-based; settings: Homo sapiens; cell number, Sulforhodamine B, 48 hours exposure; Table 4; read-out: IC50 A2780DDP
[8] = tested on: MIP; experiment: Inhibition of cancer cell growth as measured by cell number, MIP; format: cell-based; settings: Homo sapiens; cell number, Sulforhodamine B, 48 hours exposure; Table 4; read-out: IC50 MIP
[9] = tested on: SW620; experiment: Inhibition of cancer cell growth as measured by cell number, SW620; format: cell-based, human; settings: Homo sapiens, SW-620, 48 h, cell number, Sulforhodamine B, 48 hours exposure; Table 4; read-out: IC50 SW620;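 also: SW620 was included as a cell line with little or no EGFR or HER2/neu expression, in contrast to receptor-overexpressing lines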
Text: (§4) The cell lines were chosen since they overexpressed epidermal growth factor receptor (EGFR) (i.e. A431) or HER2/neu (SKBR3), or had little to no expression of the these receptors (SW620, LOX, MCF7).

[10] = tested on: COLO205; experiment: Inhibition of cancer cell growth as measured by cell number, COLO205; format: cell-based; settings: Homo sapiens, COLO 205; cell number, Sulforhodamine B, 48 hours exposure; Table 4; read-out: IC50 COLO205
[11] = tested on: CX1; experiment: Inhibition of cancer cell growth as measured by cell number, CX1; format: cell-based; settings: Homo sapiens, CX-1; cell number, Sulforhodamine B, 48 hours exposure; Table 4; read-out: IC50 CX1
[12] = tested on: CACO2; experiment: Inhibition of cancer cell growth as measured by cell number, CACO2; format: cell-based; settings: Homo sapiens, Caco-2; cell number, Sulforhodamine B, 48 hours exposure; Table 5; read-out: IC50 CACO2
[13] = tested on: HCT15; experiment: Inhibition of cancer cell growth as measured by cell number, HCT15; format: cell-based; settings: Homo sapiens, HCT-15; cell number, Sulforhodamine B, 48 hours exposure; Table 5; read-out: IC50 HCT15
[14] = tested on: LS174T; experiment: Inhibition of cancer cell growth as measured by cell number, LS174T; format: cell-based; settings: Homo sapiens, cell number, Sulforhodamine B, 48 hours exposure, Table 5, read-out: IC50 LS174T
[15] = tested on: SW948; experiment: Inhibition of cancer cell growth as measured by cell number, SW948; format: cell-based; settings: Homo sapiens, SW948; cell number, Sulforhodamine B, 48 hours exposure; Table 5; read-out: IC50 SW948
[16] = tested on: CCL228; experiment: Inhibition of cancer cell growth as measured by cell number, CCL228; format: cell-based; settings: Homo sapiens; cell number, Sulforhodamine B, 48 hours exposure; Table 5; read-out: IC50 CCL228
[17] = tested on: B7474; experiment: Inhibition of cancer cell growth as measured by cell number, B7474; format: cell-based; settings: Homo sapiens; cell number, Sulforhodamine B, 48 hours exposure; Table 6; read-out: IC50 B7474
[18] = tested on: T47D; experiment: Inhibition of cancer cell growth as measured by cell number, T47D; format: cell-based; settings: Homo sapiens, cell number, Sulforhodamine B, 48 hours exposure, Table 6, read-out: IC50 T47D
[19] = tested on: LX1; experiment: Inhibition of cancer cell growth as measured by cell number, LX1; format: cell-based; settings: Homo sapiens, LX-1; cell number, Sulforhodamine B, 48 hours exposure; Table 6; read-out: IC50 LX1
[20] = tested on: A549; experiment: Inhibition of cancer cell growth as measured by cell number, A549; format: cell-based; settings: Homo sapiens, A549; cell number, Sulforhodamine B, 48 hours exposure; Table 6; read-out: IC50 A549
[21] = tested on: LOX; experiment: Inhibition of cancer cell growth as measured by cell number, LOX; format: cell-based, human; settings: Homo sapiens, LOX, 48 h, cell number, Sulforhodamine B, 48 hours exposure; Table 6; read-out: IC50 LOX;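 also: LOX cells served as a line with low or absent EGFR and HER2/neu expression, in contrast to receptor-overexpressing lines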
Text: as §4

[22] = tested on: A431; experiment: Inhibition of cancer cell growth as measured by cell number, A431; format: cell-based, human; settings: Homo sapiens, A-431, 48 h, cell number, Sulforhodamine B, 48 hours exposure; Table 6; read-out: IC50 A431;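 also: human A431 line, picked because it overexpresses epidermal growth factor receptor (EGFR)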
Text: as §4

[23] = tested on: NEC; experiment: Inhibition of cancer cell growth as measured by cell number, NEC; format: cell-based; settings: Homo sapiens; cell number, Sulforhodamine B, 48 hours exposure; Table 6; read-out: IC50 NEC
[24] = tested on: DU145; experiment: Inhibition of cancer cell growth as measured by cell number, DU145; format: cell-based; settings: Homo sapiens, DU-145; cell number, Sulforhodamine B, 48 hours exposure; Table 7; read-out: IC50 DU145
[25] = tested on: PC3; experiment: Inhibition of cancer cell growth as measured by cell number, PC3; format: cell-based; settings: Homo sapiens, PC-3; cell number, Sulforhodamine B, 48 hours exposure; Table 7; read-out: IC50 PC3
[26] = tested on: LNCAP; experiment: Inhibition of cancer cell growth as measured by cell number, LNCAP; format: cell-based; settings: Homo sapiens, cell number, Sulforhodamine B, 48 hours exposure, Table 7, read-out: IC50 LNCAP
[27] = tested on: HL60; experiment: Inhibition of cancer cell growth as measured by cell number, HL60; format: cell-based; settings: Homo sapiens, HL-60; cell number, Sulforhodamine B, 48 hours exposure; Table 7; read-out: IC50 HL60
[28] = tested on: CCRF-CFM; experiment: Inhibition of cancer cell growth as measured by cell number, CCRF-CFM; format: cell-based; settings: Homo sapiens; cell number, Sulforhodamine B, 48 hours exposure; Table 7; read-out: IC50 CCRF-CFM
[29] = molecular target: epidermal growth factor receptor kinase (Homo sapiens, UniProt P00533); experiment: biochemical
Chain of epidermal growth factor receptor kinase (P00533 25-1210): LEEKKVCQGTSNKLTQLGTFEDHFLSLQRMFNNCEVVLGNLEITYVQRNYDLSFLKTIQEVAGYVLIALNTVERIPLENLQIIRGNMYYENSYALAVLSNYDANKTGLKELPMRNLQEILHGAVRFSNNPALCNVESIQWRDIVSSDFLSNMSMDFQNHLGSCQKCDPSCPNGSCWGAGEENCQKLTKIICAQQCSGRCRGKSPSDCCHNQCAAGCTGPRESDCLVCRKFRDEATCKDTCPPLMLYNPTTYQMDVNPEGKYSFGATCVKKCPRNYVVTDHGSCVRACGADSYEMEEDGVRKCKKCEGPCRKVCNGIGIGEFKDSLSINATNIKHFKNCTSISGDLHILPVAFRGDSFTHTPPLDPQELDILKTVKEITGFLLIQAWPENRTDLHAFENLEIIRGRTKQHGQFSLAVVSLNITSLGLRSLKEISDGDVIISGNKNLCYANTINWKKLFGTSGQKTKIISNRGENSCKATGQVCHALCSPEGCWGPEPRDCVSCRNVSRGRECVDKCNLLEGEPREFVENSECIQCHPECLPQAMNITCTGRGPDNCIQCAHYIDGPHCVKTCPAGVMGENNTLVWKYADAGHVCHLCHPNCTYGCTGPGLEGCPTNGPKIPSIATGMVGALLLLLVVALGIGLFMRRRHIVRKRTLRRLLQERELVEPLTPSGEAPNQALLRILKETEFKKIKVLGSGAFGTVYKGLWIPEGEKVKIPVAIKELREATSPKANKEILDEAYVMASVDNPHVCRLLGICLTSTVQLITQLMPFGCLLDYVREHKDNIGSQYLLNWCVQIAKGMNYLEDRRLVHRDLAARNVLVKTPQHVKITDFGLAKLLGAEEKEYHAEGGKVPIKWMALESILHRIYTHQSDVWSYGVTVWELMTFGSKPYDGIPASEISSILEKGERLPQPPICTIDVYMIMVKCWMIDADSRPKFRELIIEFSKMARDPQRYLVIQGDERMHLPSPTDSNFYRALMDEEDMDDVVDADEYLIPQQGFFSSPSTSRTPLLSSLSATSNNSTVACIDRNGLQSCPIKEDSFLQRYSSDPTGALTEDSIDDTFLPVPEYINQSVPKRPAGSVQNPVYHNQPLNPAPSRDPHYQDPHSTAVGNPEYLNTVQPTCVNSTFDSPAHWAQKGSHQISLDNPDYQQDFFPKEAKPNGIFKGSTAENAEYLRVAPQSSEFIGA

SMILES: CC#CC(=O)Nc1ccc2ncc(C#N)c(Nc3ccc(Br)c(Br)c3)c2c1 [Example 22, N-[4-[(3,4-dibromophenyl)amino]-3-cyano-6-quinolinyl]-2-butynamide]
- IC50 [1]: 150 nM
- IC50 [2]: > 50000 nM
- IC50 [3]: 35 nM
- IC50 [4]: > 50000 nM
- IC50 [5]: 0.248 µg/mL (≈ 0.512 µM)
- IC50 [6]: 0.0567 µg/mL (≈ 0.117 µM)
- IC50 [7]: 0.211 µg/mL (≈ 0.436 µM)
- IC50 [8]: 0.378 µg/mL (≈ 0.782 µM)
- IC50 [9]: 0.526 µg/mL (≈ 1.09 µM)
- IC50 [10]: 4.3 µg/mL (≈ 8.89 µM)
- IC50 [11]: 0.775 µg/mL (≈ 1.6 µM)
- IC50 [12]: 0.475 µg/mL (≈ 0.982 µM)
- IC50 [13]: 0.372 µg/mL (≈ 0.769 µM)
- IC50 [14]: 0.847 µg/mL (≈ 1.75 µM)
- IC50 [15]: 0.593 µg/mL (≈ 1.23 µM)
- IC50 [16]: 0.255 µg/mL (≈ 0.527 µM)
- IC50 [17]: 0.314 µg/mL (≈ 0.648 µM)
- IC50 [18]: 0.704 µg/mL (≈ 1.45 µM)
- IC50 [19]: 0.81 µg/mL (≈ 1.67 µM)
- IC50 [20]: 0.375 µg/mL (≈ 0.775 µM)
- IC50 [21]: 0.0225 µg/mL (≈ 0.0465 µM)
- IC50 [22]: 0.0443 µg/mL (≈ 0.0915 µM)
- IC50 [23]: 0.492 µg/mL (≈ 1.02 µM)
- IC50 [24]: 0.265 µg/mL (≈ 0.548 µM)
- IC50 [25]: 0.695 µg/mL (≈ 1.44 µM)
- IC50 [26]: 0.722 µg/mL (≈ 1.49 µM)
- IC50 [27]: 0.608 µg/mL (≈ 1.26 µM)
- IC50 [28]: 0.403 µg/mL (≈ 0.833 µM)
- IC50 [29]: 3000 nM
